Measurements from US6436956B1, “Useful form of anhydrous paroxetine hydrochloride” (Brantford Chemicals Inc., priority 1996, dated 2002).
Where a name gives a salt, the structure may show the parent alone. Read-outs that look alike come from different tables or passages of the source.

Assays:
[1] = hygroscopicity / moisture uptake on exposure to open air; type: physicochemical
[2] = bulk density and tapped density of the solid; type: physicochemical
[3] = solid-form stability, conversion to the hemihydrate polymorph (DSC maximum of 143° C.); type: physicochemical
[4] = prior-art form, purported; cited from earlier work
[5] = prior-art form, from literature; cited from earlier work
[6] = Form IV as described in summary (material of Example 2)
[7] = material of Example 5 (methanol solution evaporated to foam, dried, pulverized)

Cl.Fc1ccc([C@@H]2CCNC[C@H]2COc2ccc3c(c2)OCO3)cc1 [Form IV, paroxetine hydrochloride (anhydrous)]
hygroscopic nature [1]: substantially non-hygroscopic
moisture taken on ([1]; exposed to open air for three days, ca. 50% relative humidity): ≤ 1.5 % by weight
bulk density [2, 6]: exceeding 0.6 g/mL
tapped density [2, 6]: exceeding 0.9 g/mL
bulk density [2, 7]: exceeding 0.43 g/mL
tapped density [2, 7]: > 0.58 g/mL
stability [3]: very stable
rate of conversion to the hemihydrate polymorph ([3]; even in humid environments, DSC maximum of 143° C. as indicator): negligible rate

Fc1ccc([C@@H]2CCNC[C@H]2COc2ccc3c(c2)OCO3)cc1 [hemihydrate form, paroxetine hydrochloride hemihydrate]
stability [4]: purportedly stable

Fc1ccc([C@@H]2CCNC[C@H]2COc2ccc3c(c2)OCO3)cc1 [anhydrous form, paroxetine hydrochloride]
hygroscopic nature [5]: hygroscopic
